Test results reported in ChEMBL document CHEMBL1201862, “PubChem BioAssay data set” (2004).
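Growth conditions: 96-well plates. Treatment: test compound, 48 hours, 5 concentrations. Analysis: linear interpolation between bracketing concentrations; unreached endpoints set to highest concentration. GI50 is the concentration that inhibits growth by half.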 Active and inactive are the calls of the source. No stated cut-off is given here; in the data, active = GI50 up to about 1.1 µM and inactive = higher.

Tests used:
Experiment in all cases: NCI-60 cell line screen, 48 h
SK-OV-3 = system: SK-OV-3
IGROV-1 = system: IGROV-1
Hs-578T = system: Hs-578T
ACHN = system: ACHN
HT-29 = system: HT-29
OVCAR-8 = system: OVCAR-8
K562 = system: K562
MDA-MB-435 = system: MDA-MB-435
UACC-62 = system: UACC-62
SN12C = system: SN12C
HL-60 = system: HL-60
OVCAR-5 = system: OVCAR-5
EKVX = system: EKVX
SW-620 = system: SW-620
Malme-3M = system: Malme-3M
HCT-15 = system: HCT-15
MDA-MB-231 = system: MDA-MB-231
OVCAR-3 = system: OVCAR-3
UACC-257 = system: UACC-257
A549 = system: A549
KM12 = system: KM12
NCI-H23 = system: NCI-H23
RPMI-8226 = system: RPMI-8226
SK-MEL-2 = system: SK-MEL-2
SF-268 = system: SF-268
SR = system: SR
M14 = system: M14
T47D = system: T47D
COLO 205 = system: COLO 205
LOX IMVI = system: LOX IMVI
UO-31 = system: UO-31
SF-539 = system: SF-539
786-0 = system: 786-0
HOP-62 = system: HOP-62
CCRF-CEM = system: CCRF-CEM
NCI-H460 = system: NCI-H460
SK-MEL-28 = system: SK-MEL-28
SNB-75 = system: SNB-75
PC-3 = system: PC-3
MOLT-4 = system: MOLT-4
OVCAR-4 = system: OVCAR-4
TK-10 = system: TK-10
NCI-H522 = system: NCI-H522
DU-145 = system: DU-145
BT-549 = system: BT-549
U-251 = system: U-251
SF-295 = system: SF-295
HCT-116 = system: HCT-116
SK-MEL-5 = system: SK-MEL-5
SNB-19 = system: SNB-19
HCC 2998 = system: HCC 2998
NCI-H226 = system: NCI-H226
A498 = system: A498
MDA-N = system: MDA-N
RXF 393 = system: RXF 393
MCF7 = system: MCF7
NCI/ADR-RES = system: NCI/ADR-RES
CAKI-1 = system: CAKI-1
HOP-92 = system: HOP-92

Compound: CCn1c(SCC(=O)NNC(=S)Nc2ccc(C)cc2)nc2ccccc2c1=O
- GI50 (SK-OV-3): > 100 µM (inactive)
- GI50 (IGROV-1): > 100 µM (inactive)
- GI50 (Hs-578T): > 100 µM (inactive)
- GI50 (ACHN): > 100 µM (inactive)
- GI50 (HT-29): > 100 µM (inactive)
- GI50 (OVCAR-8): > 100 µM (inactive)
- GI50 (K562): 51.9 µM (inactive)
- GI50 (MDA-MB-435): > 100 µM (inactive)
- GI50 (UACC-62): > 100 µM (inactive)
- GI50 (SN12C): > 100 µM (inactive)
- GI50 (HL-60): > 100 µM (inactive)
- GI50 (OVCAR-5): > 100 µM (inactive)
- GI50 (EKVX): > 100 µM (inactive)
- GI50 (SW-620): > 100 µM (inactive)
- GI50 (Malme-3M): > 100 µM (inactive)
- GI50 (HCT-15): > 100 µM
- GI50 (MDA-MB-231): > 100 µM (inactive)
- GI50 (OVCAR-3): > 100 µM (inactive)
- GI50 (UACC-257): > 100 µM (inactive)
- GI50 (A549): > 100 µM (inactive)
- GI50 (KM12): > 100 µM (inactive)
- GI50 (NCI-H23): > 100 µM (inactive)
- GI50 (RPMI-8226): 70.1 µM (inactive)
- GI50 (SK-MEL-2): > 100 µM (inactive)
- GI50 (SF-268): 57.3 µM (inactive)
- GI50 (SR): 40.6 µM (inactive)
- GI50 (M14): > 100 µM (inactive)
- GI50 (T47D): 65.5 µM (inactive)
- GI50 (COLO 205): > 100 µM (inactive)
- GI50 (LOX IMVI): > 100 µM (inactive)
- GI50 (UO-31): 22 µM (inactive)
- GI50 (SF-539): > 100 µM (inactive)
- GI50 (786-0): > 100 µM (inactive)
- GI50 (HOP-62): > 100 µM (inactive)
- GI50 (CCRF-CEM): > 100 µM (inactive)
- GI50 (NCI-H460): 1.6 µM (inactive)
- GI50 (SK-MEL-28): > 100 µM (inactive)
- GI50 (SNB-75): > 100 µM (inactive)
- GI50 (PC-3): > 100 µM (inactive)
- GI50 (MOLT-4): 27.1 µM (inactive)
- GI50 (OVCAR-4): 78.9 µM (inactive)
- GI50 (TK-10): 85.5 µM (inactive)
- GI50 (NCI-H522): > 100 µM (inactive)
- GI50 (DU-145): > 100 µM (inactive)
- GI50 (BT-549): > 100 µM (inactive)
- GI50 (U-251): > 100 µM (inactive)
- GI50 (SF-295): > 100 µM (inactive)
- GI50 (HCT-116): > 100 µM (inactive)
- GI50 (SK-MEL-5): > 100 µM (inactive)
- GI50 (SNB-19): > 100 µM (inactive)
- GI50 (HCC 2998): > 100 µM (inactive)
- GI50 (NCI-H226): > 100 µM (inactive)
- GI50 (A498): > 100 µM (inactive)
- GI50 (MDA-N): > 100 µM (inactive)
- GI50 (RXF 393): > 100 µM (inactive)
- GI50 (MCF7): > 100 µM (inactive)
- GI50 (NCI/ADR-RES): > 100 µM (inactive)

Compound: CC(C)CCNC(=O)c1ccc(CNC(=O)/C=C/c2cccc(Oc3ccccc3)c2)cc1
- GI50 (SK-OV-3): 33.1 µM (inactive)
- GI50 (IGROV-1): 67.5 µM (inactive)
- GI50 (Hs-578T): > 100 µM (inactive)
- GI50 (ACHN): 48.4 µM (inactive)
- GI50 (HT-29): 30.5 µM (inactive)
- GI50 (CAKI-1): 47.1 µM (inactive)
- GI50 (OVCAR-8): 25.9 µM (inactive)
- GI50 (K562): > 100 µM (inactive)
- GI50 (MDA-MB-435): 13.6 µM (inactive)
- GI50 (UACC-62): 23.8 µM (inactive)
- GI50 (SN12C): 43.7 µM (inactive)
- GI50 (OVCAR-5): > 100 µM (inactive)
- GI50 (EKVX): 23.1 µM (inactive)
- GI50 (SW-620): 41.4 µM (inactive)
- GI50 (Malme-3M): > 100 µM (inactive)
- GI50 (HCT-15): 38.6 µM
- GI50 (MDA-MB-231): 24.1 µM (inactive)
- GI50 (OVCAR-3): 28.4 µM (inactive)
- GI50 (UACC-257): 23.2 µM (inactive)
- GI50 (A549): 42.6 µM (inactive)
- GI50 (KM12): 44 µM (inactive)
- GI50 (NCI-H23): 34.3 µM (inactive)
- GI50 (RPMI-8226): 67.9 µM (inactive)
- GI50 (SK-MEL-2): 31.3 µM (inactive)
- GI50 (SF-268): 37.3 µM (inactive)
- GI50 (SR): 8.77 µM (inactive)
- GI50 (M14): 31 µM (inactive)
- GI50 (T47D): 79.3 µM (inactive)
- GI50 (COLO 205): > 100 µM (inactive)
- GI50 (LOX IMVI): 37.2 µM (inactive)
- GI50 (UO-31): 45 µM (inactive)
- GI50 (SF-539): 11.6 µM (inactive)
- GI50 (786-0): 24 µM (inactive)
- GI50 (HOP-62): 18.7 µM (inactive)
- GI50 (NCI-H460): 34.3 µM (inactive)
- GI50 (SK-MEL-28): > 100 µM (inactive)
- GI50 (SNB-75): 34.9 µM (inactive)
- GI50 (PC-3): 46.2 µM (inactive)
- GI50 (MOLT-4): > 100 µM (inactive)
- GI50 (OVCAR-4): 27.7 µM (inactive)
- GI50 (TK-10): 22.6 µM (inactive)
- GI50 (NCI-H522): 52.5 µM (inactive)
- GI50 (DU-145): 70.3 µM (inactive)
- GI50 (BT-549): 60.1 µM (inactive)
- GI50 (HOP-92): 53.2 µM (inactive)
- GI50 (U-251): 28.8 µM (inactive)
- GI50 (SF-295): 23.8 µM (inactive)
- GI50 (HCT-116): 24.5 µM (inactive)
- GI50 (SK-MEL-5): 51.2 µM (inactive)
- GI50 (SNB-19): 24.5 µM (inactive)
- GI50 (HCC 2998): 26.9 µM (inactive)
- GI50 (NCI-H226): 47.4 µM (inactive)
- GI50 (A498): 30.8 µM (inactive)
- GI50 (MDA-N): 16.5 µM (inactive)
- GI50 (RXF 393): 18.6 µM (inactive)
- GI50 (MCF7): 36.5 µM (inactive)
- GI50 (NCI/ADR-RES): 37.2 µM (inactive)
